# Measurements as given in PubChem BioAssay (NCI).
#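 96-well plates; 48 h exposure; 5 concentrations. Endpoints by linear interpolation between flanking doses. Not reached: highest tested concentration assigned. TGI: concentration producing complete growth inhibition.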
# Assays:
# Experiment in all cases: NCI-60 cell line screen, 48 h
# [1] = test system: 786-0 renal
# [2] = test system: A498 renal
# [3] = test system: A549 NSCLC
# [4] = test system: ACHN renal
# [5] = test system: CAKI-1 renal
# [6] = test system: CCRF-CEM leukemia
# [7] = test system: COLO 205 colon
# [8] = test system: DLD-1 colon
# [9] = test system: DMS 114 small cell lung
# [10] = test system: DMS 273 small cell lung
# [11] = test system: EKVX NSCLC
# [12] = test system: HCC-2998 colon
# [13] = test system: HCT-116 colon
# [14] = test system: HCT-15 colon
# [15] = test system: HL-60(TB) leukemia
# [16] = test system: HOP-18 NSCLC
# [17] = test system: HOP-62 NSCLC
# [18] = test system: HT29 colon
# [19] = test system: IGROV1 ovarian
# [20] = test system: K-562 leukemia
# [21] = test system: KM12 colon
# [22] = test system: KM20L2 colon
# [23] = test system: LOX IMVI melanoma
# [24] = test system: LXFL 529 NSCLC
# [25] = test system: M14 melanoma
# [26] = test system: M19-MEL melanoma
# [27] = test system: MALME-3M melanoma
# [28] = test system: MOLT-4 leukemia
# [29] = test system: NCI-H226 lung
# [30] = test system: NCI-H23 lung
# [31] = test system: NCI-H460 lung
# [32] = test system: NCI-H522 lung
# [33] = test system: OVCAR-3 ovarian
# [34] = test system: OVCAR-4 ovarian
# [35] = test system: OVCAR-5 ovarian
# [36] = test system: OVCAR-8 ovarian
# [37] = test system: RPMI-8226 leukemia
# [38] = test system: RXF-631 renal
# [39] = test system: SF-268 CNS
# [40] = test system: SF-295 CNS
# [41] = test system: SK-MEL-2 melanoma
# [42] = test system: SK-MEL-28 melanoma
# [43] = test system: SK-MEL-5 melanoma
# [44] = test system: SK-OV-3 ovarian
# [45] = test system: SN12C renal
# [46] = test system: SNB-19 CNS
# [47] = test system: SNB-75 CNS
# [48] = test system: SNB-78 CNS
# [49] = test system: SW-620 colon
# [50] = test system: TK-10 renal
# [51] = test system: U251 CNS
# [52] = test system: UACC-257 melanoma
# [53] = test system: UACC-62 melanoma
# [54] = test system: UO-31 renal
# [55] = test system: HOP-92 NSCLC
# [56] = test system: RXF 393 renal
smiles,measurement,setting,value
O=C(NCCCCNc1cccccc1=O)OCc1ccccc1,TGI,[1],> 100 µM
same,TGI,[2],> 100 µM
same,TGI,[3],> 100 µM
same,TGI,[4],> 100 µM
same,TGI,[5],> 100 µM
same,TGI,[6],> 100 µM
same,TGI,[7],> 100 µM
same,TGI,[8],> 100 µM
same,TGI,[9],> 100 µM
same,TGI,[10],> 100 µM
same,TGI,[11],> 100 µM
same,TGI,[12],> 100 µM
same,TGI,[13],> 100 µM
same,TGI,[14],> 100 µM
same,TGI,[15],> 100 µM
same,TGI,[16],> 100 µM
same,TGI,[17],> 100 µM
same,TGI,[18],> 100 µM
same,TGI,[19],> 100 µM
same,TGI,[20],> 100 µM
same,TGI,[21],> 100 µM
same,TGI,[22],> 100 µM
same,TGI,[23],> 100 µM
same,TGI,[24],> 100 µM
same,TGI,[25],> 100 µM
same,TGI,[26],> 100 µM
same,TGI,[27],> 100 µM
same,TGI,[28],> 100 µM
same,TGI,[29],> 100 µM
same,TGI,[30],> 100 µM
same,TGI,[31],> 100 µM
same,TGI,[32],> 100 µM
same,TGI,[33],> 100 µM
same,TGI,[34],> 100 µM
same,TGI,[35],> 100 µM
same,TGI,[36],> 100 µM
same,TGI,[37],> 100 µM
same,TGI,[38],> 100 µM
same,TGI,[39],> 100 µM
same,TGI,[40],> 100 µM
same,TGI,[41],> 100 µM
same,TGI,[42],> 100 µM
same,TGI,[43],> 100 µM
same,TGI,[44],> 100 µM
same,TGI,[45],> 100 µM
same,TGI,[46],> 100 µM
same,TGI,[47],> 100 µM
same,TGI,[48],> 100 µM
same,TGI,[49],> 100 µM
same,TGI,[50],> 100 µM
same,TGI,[51],> 100 µM
same,TGI,[52],> 100 µM
same,TGI,[53],> 100 µM
same,TGI,[54],> 100 µM
CCN(CC)c1c(C(=O)/C=C/c2ccc(Cl)cc2)c(-c2ccccc2)nn(C)c1=O,TGI,[1],3.5 µM
same,TGI,[2],4.44 µM
same,TGI,[3],3.89 µM
same,TGI,[4],3.38 µM
same,TGI,[5],21.5 µM
same,TGI,[6],8.82 µM
same,TGI,[7],4.01 µM
same,TGI,[8],3.99 µM
same,TGI,[9],3.76 µM
same,TGI,[10],3.41 µM
same,TGI,[11],6.87 µM
same,TGI,[12],3.24 µM
same,TGI,[13],3.11 µM
same,TGI,[14],3.31 µM
same,TGI,[15],6.46 µM
same,TGI,[16],4.83 µM
same,TGI,[17],4.26 µM
same,TGI,[55],4.33 µM
same,TGI,[18],3.32 µM
same,TGI,[19],4.21 µM
same,TGI,[20],7.27 µM
same,TGI,[22],7.84 µM
same,TGI,[23],3.48 µM
same,TGI,[24],3.42 µM
same,TGI,[25],4.01 µM
same,TGI,[26],3.14 µM
same,TGI,[27],4.35 µM
same,TGI,[28],5.06 µM
same,TGI,[29],4.4 µM
same,TGI,[30],3.1 µM
same,TGI,[31],3.67 µM
same,TGI,[32],2.98 µM
same,TGI,[33],4.35 µM
same,TGI,[34],3.27 µM
same,TGI,[35],3.23 µM
same,TGI,[36],3.1 µM
same,TGI,[37],5.2 µM
same,TGI,[56],2.8 µM
same,TGI,[38],3.99 µM
same,TGI,[39],3.4 µM
same,TGI,[40],3.38 µM
same,TGI,[41],3.62 µM
same,TGI,[42],3.02 µM
same,TGI,[43],3.2 µM
same,TGI,[44],18.7 µM
same,TGI,[45],4.59 µM
same,TGI,[46],3.98 µM
same,TGI,[47],7.5 µM
same,TGI,[48],5.93 µM
same,TGI,[49],4.6 µM
same,TGI,[50],4 µM
same,TGI,[51],3.18 µM
same,TGI,[52],3.76 µM
same,TGI,[53],3.31 µM
same,TGI,[54],3.12 µM
